Assay results taken from PubChem BioAssay AID602458 (NMMLSC, 2012).
≈ marks a conversion by molar mass, not a printed value. Calls of active or inactive are those of the source.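 Rule for the calls: active = compounds whose saturated solubility in pH 7.4 saline buffer exceeds 10 µg/mL; inactive = the rest.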

Test system: 1xPBS pH 7.4 kinetic solubility, UV absorbance
Assay: kinetic aqueous solubility of hits, late-stage follow-up, ADME assay for GPR30 and estrogen receptor ligands, biophysical, 1xPBS, pH 7.4, UV absorbance (AID 602458)
Conditions: active compounds read high

solubility	Compound
0.14 µg/mL (inactive) (≈ 0.34 µM)	CC(=O)c1ccc2c(c1)[C@@H]1C=CC[C@@H]1[C@H](c1cc3c(cc1Br)OCO3)N2
0.28 µg/mL (inactive) (≈ 0.858 µM)	COc1cc([N+](=O)[O-])cc2c1NC(C1CC=CCC1)C1CC=CC21 (configuration not stated)
